Data taken from PubChem BioAssay (NCI).
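All cell lines were grown in 96-well plates and treated with compound for 48 hours. The concentration for 50% growth inhibition is given as GI50. Definition used: TGI = concentration required for complete inhibition of growth.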

Key:
Assay in all cases: DTP human tumour cell line panel, 48 h
M14 melanoma = system: M14 melanoma
UO-31 renal = system: UO-31 renal
ACHN renal = system: ACHN renal
OVCAR-8 ovarian = system: OVCAR-8 ovarian
IGROV1 ovarian = system: IGROV1 ovarian
SF-539 CNS = system: SF-539 CNS
SK-MEL-5 melanoma = system: SK-MEL-5 melanoma
SK-MEL-28 melanoma = system: SK-MEL-28 melanoma
SR leukemia = system: SR leukemia
HCC-2998 colon = system: HCC-2998 colon
PC-3 prostate = system: PC-3 prostate
HCT-15 colon = system: HCT-15 colon
OVCAR-5 ovarian = system: OVCAR-5 ovarian
UACC-62 melanoma = system: UACC-62 melanoma
HOP-62 NSCLC = system: HOP-62 NSCLC
SK-MEL-2 melanoma = system: SK-MEL-2 melanoma
HCT-116 colon = system: HCT-116 colon
HL-60(TB) leukemia = system: HL-60(TB) leukemia
NCI-H226 lung = system: NCI-H226 lung
NCI/ADR-RES ovarian = system: NCI/ADR-RES ovarian
HOP-92 NSCLC = system: HOP-92 NSCLC
DU-145 prostate = system: DU-145 prostate
SK-OV-3 ovarian = system: SK-OV-3 ovarian
SF-295 CNS = system: SF-295 CNS
NCI-H460 lung = system: NCI-H460 lung
MDA-MB-231 breast = system: MDA-MB-231 breast
U251 CNS = system: U251 CNS
OVCAR-3 ovarian = system: OVCAR-3 ovarian
786-0 renal = system: 786-0 renal

O=C(NNc1nc2cc(F)ccc2n2c(CN3CCCCC3)ccc12)c1cnccn1 gave a GI50 (M14 melanoma) of 1490 nM, a TGI (M14 melanoma) of 5540 nM and a GI50 (UO-31 renal) of 330 nM. For the same compound, the TGI (UO-31 renal) was 4910 nM, the GI50 (ACHN renal) was 763 nM and the TGI (ACHN renal) was 7910 nM. The GI50 (OVCAR-8 ovarian) was 944 nM, the TGI (OVCAR-8 ovarian) was 5270 nM and the GI50 (IGROV1 ovarian) was 894 nM. The TGI (IGROV1 ovarian) was 5060 nM, the GI50 (SF-539 CNS) was 1140 nM and the TGI (SF-539 CNS) was 6940 nM. For the same compound, the GI50 (SK-MEL-5 melanoma) was 1810 nM, the TGI (SK-MEL-5 melanoma) was 8100 nM and the GI50 (SK-MEL-28 melanoma) was 2700 nM. It also gave a TGI (SK-MEL-28 melanoma) of 13300 nM, a GI50 (SR leukemia) of 288 nM and a TGI (SR leukemia) of 2210 nM. For the same compound, the GI50 (HCC-2998 colon) was 1140 nM, the TGI (HCC-2998 colon) was 11600 nM and the GI50 (PC-3 prostate) was 1220 nM. It also gave a TGI (PC-3 prostate) of 6720 nM, a GI50 (HCT-15 colon) of 190 nM and a TGI (HCT-15 colon) of 12800 nM. For the same compound, the GI50 (OVCAR-5 ovarian) was 1350 nM, the TGI (OVCAR-5 ovarian) was 7230 nM and the GI50 (UACC-62 melanoma) was 1280 nM. For the same compound, the TGI (UACC-62 melanoma) was 3240 nM, the GI50 (HOP-62 NSCLC) was 1140 nM and the TGI (HOP-62 NSCLC) was 7910 nM. It also gave a GI50 (SK-MEL-2 melanoma) of 2130 nM, a TGI (SK-MEL-2 melanoma) of 12400 nM and a GI50 (HCT-116 colon) of 701 nM. For the same compound, the TGI (HCT-116 colon) was 12500 nM, the GI50 (HL-60(TB) leukemia) was 340 nM and the TGI (HL-60(TB) leukemia) was 1640 nM. The GI50 (NCI-H226 lung) was 1640 nM, the TGI (NCI-H226 lung) was 6800 nM and the GI50 (NCI/ADR-RES ovarian) was 514 nM. It also gave a TGI (NCI/ADR-RES ovarian) of 2290 nM, a GI50 (HOP-92 NSCLC) of 1190 nM and a TGI (HOP-92 NSCLC) of 5370 nM. The GI50 (DU-145 prostate) was 1410 nM, the TGI (DU-145 prostate) was 11800 nM and the GI50 (SK-OV-3 ovarian) was 1170 nM. The TGI (SK-OV-3 ovarian) was 10900 nM, the GI50 (SF-295 CNS) was 599 nM and the TGI (SF-295 CNS) was 6270 nM. The GI50 (NCI-H460 lung) was 392 nM, the TGI (NCI-H460 lung) was 3150 nM and the GI50 (MDA-MB-231 breast) was 1260 nM. For the same compound, the TGI (MDA-MB-231 breast) was 10400 nM, the GI50 (U251 CNS) was 967 nM and the TGI (U251 CNS) was 11700 nM. It also gave a GI50 (OVCAR-3 ovarian) of 2040 nM, a TGI (OVCAR-3 ovarian) of 16000 nM and a GI50 (786-0 renal) of 1320 nM. For the same compound, the TGI (786-0 renal) was 4360 nM.
